For 38 compounds, GI50 and TGI results are on record in PubChem BioAssay (NCI).

Among the test systems are XF 498 CNS; DMS 114 small cell lung; KM20L2 colon; HOP-18 NSCLC; M19-MEL melanoma; LXFL 529 NSCLC; SNB-78 CNS; MDA-N.
What all share (test): DTP human tumour cell line panel, 48 h

Values joined by “and” are separate entries in the source; they are usually repeats but may differ in a detail not shown here. Equal values may be shown once.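 Tested at 5 concentrations; 48 h exposure; 96-well plates; endpoints linearly interpolated, else capped at highest concentration. GI50 = concentration required for 50% inhibition of growth. TGI marks complete inhibition of growth.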

One may read the GI50 as the concentration giving 50% growth inhibition. Usually TGI stands for the concentration giving total growth inhibition.

Consider `C=Cc1cncc(C#N)c1CCc1c(C#N)cncc1C=C`, for which the GI50 with XF 498 CNS, with KM20L2 colon, in the assay on M19-MEL melanoma, with LXFL 529 NSCLC and in the assay with SNB-78 CNS was over 100 µM in each case. The concentration for total growth inhibition (TGI) in the assay with XF 498 CNS is over 100 µM; with DMS 114 small cell lung, over 10 µM; in the assay on KM20L2 colon it was over 100 µM; in the assay with HOP-18 NSCLC it was over 10 µM; with M19-MEL melanoma, over 100 µM; with LXFL 529 NSCLC, over 100 µM. Besides, the total growth inhibition concentration (TGI) with SNB-78 CNS is over 100 µM.

On to `O=C1C=CC(=O)C2=C1[C@@H](O)C1CC=CC3C(=O)O[C@@H]2C31` (stereo partly specified), for which the total growth inhibition concentration (TGI) was 42.1 µM with XF 498 CNS; 51.3 µM in the assay with DMS 114 small cell lung; 60.9 µM in the assay with KM20L2 colon; over 62 µM in the assay with HOP-18 NSCLC; over 58.3 µM with M19-MEL melanoma; 29.3 µM in the assay with LXFL 529 NSCLC. Besides, the concentration for total growth inhibition (TGI) in the assay on SNB-78 CNS is over 62.3 µM.

With `COc1cccc(N2C(=O)C3c4[nH]c5ccccc5c4C4CCCC4C3C2=O)c1` (stereo unspecified), the total growth inhibition concentration (TGI) with MDA-N is over 10 µM.

Regarding `Cc1cccc(/C=N/NC(=S)N2CCCC2)n1`, in the assay with MDA-N, the GI50 is 1.91 µM and the total growth inhibition concentration (TGI) is over 26.1 µM.

With `CC(C)(C)C(=O)OCC1C(=O)OCC1C(=O)N1Cc2cc3ccccc3nc2C1` (stereo unspecified), the TGI in the assay on MDA-N was found to be 14.1 µM; in the assay on DMS 114 small cell lung, 17.8 µM; in the assay on KM20L2 colon, 15.9 µM; in the assay on HOP-18 NSCLC, 6.59 µM; in the assay with M19-MEL melanoma, 12.8 µM; with LXFL 529 NSCLC it was 2.97 µM. The same compound showed a concentration for total growth inhibition (TGI) in the assay on SNB-78 CNS of 4.57 µM.

For `CC[C@@]1(O)C(=O)OCc2c1cc1n(c2=O)Cc2cc3cc4c(cc3nc2-1)OCO4`, the GI50 was 0.114 µM in the assay with XF 498 CNS, 0.0569 µM in the assay on KM20L2 colon and under 0.001 µM in the assay on HOP-18 NSCLC. Besides, the TGI with XF 498 CNS is 0.461 µM and 0.657 µM; with DMS 114 small cell lung, 0.0273 µM and 0.0398 µM; with KM20L2 colon, over 100 µM; with HOP-18 NSCLC, 0.609 µM; in the assay on M19-MEL melanoma, 0.262 µM and 0.18 µM; in the assay with LXFL 529 NSCLC it was 0.375 µM.

In the assay with MDA-N, `CC(=O)N1CC(C)(C)c2c(C)c(O)c(C)c(C)c21` returned a concentration for total growth inhibition (TGI) of over 100 µM.

Consider `O=C1CCCCC1S(=O)(=O)c1ccccc1` (stereo unspecified), for which the TGI in the assay on XF 498 CNS, with DMS 114 small cell lung, with KM20L2 colon, in the assay on HOP-18 NSCLC, in the assay with M19-MEL melanoma and in the assay with LXFL 529 NSCLC was over 100 µM throughout. In the assay on SNB-78 CNS, this compound displayed a TGI of over 100 µM.

As to `O=C1CCCCCCCCCCC1CN1CCCC1` (stereo unspecified), the total growth inhibition concentration (TGI) with MDA-N was over 100 µM.

As for `CC(CN(C)C)/C(=N\Nc1ccccc1)c1ccccc1` (stereo unspecified), the total growth inhibition concentration (TGI) in the assay on DMS 114 small cell lung was 20.5 µM; with KM20L2 colon, 0.333 µM; with HOP-18 NSCLC, 67.3 µM; in the assay on M19-MEL melanoma it was 14.5 µM; in the assay with SNB-78 CNS, 83 µM.

Regarding `CCOc1cc2c(C(=O)CC)c(O)ccc2o1`, the TGI was over 80.1 µM in the assay on XF 498 CNS; over 87.2 µM in the assay on DMS 114 small cell lung; over 100 µM in the assay with KM20L2 colon; over 63.7 µM in the assay on M19-MEL melanoma; over 100 µM with LXFL 529 NSCLC; over 100 µM in the assay on SNB-78 CNS.

`COC(C(=O)NN)c1ccccc1` (stereo unspecified) gave a TGI with MDA-N of over 100 µM.

`Cc1cn(C2CC3C(COCN3O)O2)c(=O)[nH]c1=O` (stereo unspecified): the TGI in the assay with XF 498 CNS, in the assay with DMS 114 small cell lung, in the assay on KM20L2 colon, in the assay on M19-MEL melanoma and in the assay with LXFL 529 NSCLC was over 100 µM each time.

`C[C@@]12CCC(=O)c3coc(c31)C(=O)c1cc3c(cc12)C(=O)C=CC3=O`: the GI50 with XF 498 CNS, with DMS 114 small cell lung, with KM20L2 colon, with HOP-18 NSCLC, with M19-MEL melanoma and with LXFL 529 NSCLC was over 1 µM in each case. For the same compound, the GI50 in the assay on SNB-78 CNS is over 1 µM. Besides, the TGI in the assay with XF 498 CNS was > 1 µM and 33.4 µM; with DMS 114 small cell lung, > 1 µM and 27.6 µM; in the assay with KM20L2 colon, over 100 µM; with HOP-18 NSCLC, > 1 µM and 31.3 µM; in the assay with M19-MEL melanoma, > 1 µM and 15.7 µM; in the assay on LXFL 529 NSCLC, > 1 µM and 31.3 µM. Moreover, the TGI in the assay on SNB-78 CNS is > 1 µM and 47.8 µM.

In the case of `COc1c(O)c2c3c(cc(C)cc3c1C(C)C)OC2`, the TGI with XF 498 CNS, in the assay on KM20L2 colon, in the assay on HOP-18 NSCLC, with M19-MEL melanoma, in the assay on LXFL 529 NSCLC and in the assay with SNB-78 CNS was over 100 µM each time.

For the compound `CCOC(C[C@H](O[Si](C)(C)C(C)(C)C)[C@H]1COC(=S)S1)OCC`, the TGI in the assay with XF 498 CNS is 66.7 µM; with DMS 114 small cell lung, over 100 µM; in the assay with KM20L2 colon it was over 100 µM; in the assay on M19-MEL melanoma it was over 100 µM; in the assay on LXFL 529 NSCLC it was over 100 µM.

On to `CCCCCCCCCCCCCCCC(=O)OCC1OC(n2cc(F)c(=O)[nH]c2=O)C(N)C(O)C1O` (stereo unspecified), for which the TGI in the assay on XF 498 CNS came to 33.5 µM; with DMS 114 small cell lung, 32.8 µM; in the assay with KM20L2 colon it was 30.9 µM; in the assay on HOP-18 NSCLC, 30.7 µM; in the assay with M19-MEL melanoma, 33.6 µM; in the assay on LXFL 529 NSCLC it was 34.3 µM.

Turning to `O=C(C/C(=N/O)C(=O)NC1=C(Cl)C(=O)c2ccccc2C1=O)CC(c1ccccc1)c1c(O)c2ccccc2oc1=O` (stereo unspecified), the total growth inhibition concentration (TGI) in the assay with MDA-N was 3.09 µM.

`COc1cc2c[n+](C)c3c4cc(OC)c(OC(C)C)cc4ccc3c2cc1OC`: the TGI with DMS 114 small cell lung is 26.7 µM; in the assay on KM20L2 colon it was over 100 µM; with HOP-18 NSCLC it was over 100 µM; in the assay on M19-MEL melanoma it was 48.7 µM; in the assay on LXFL 529 NSCLC, 76.1 µM; in the assay on SNB-78 CNS, over 100 µM.

`CN(C(=O)C12C3C4C1C1C2C3C41C(N)=O)C(C)(C)C` (stereo unspecified): the TGI in the assay on XF 498 CNS, with DMS 114 small cell lung, in the assay with M19-MEL melanoma, in the assay on LXFL 529 NSCLC and with SNB-78 CNS was over 100 µM throughout.

In the assay with MDA-N, `CC(C)CCCC(C)[C@H]1CCC2[C@@H]3CCC4Cc5nc6c(nc5C[C@]4(C)C3CC[C@@]21C)CC1CC[C@@H]2C(CC[C@@]3(C)C2CC[C@@H]3C(C)CCCC(C)C)[C@@]1(C)C6` (stereo partly specified) had a concentration for total growth inhibition (TGI) of over 100 µM.

In turn, `CC1CCC/C1=C(/I)C(=O)c1ccccc1` (stereo unspecified) displayed a concentration for total growth inhibition (TGI) in the assay on MDA-N of over 100 µM.

Consider `C[C@@H]1[C@H](C)N1CC(O)Cn1ccnc1[N+](=O)[O-]` (stereo partly specified), for which the TGI in the assay with MDA-N was over 100 µM.

For the compound `CC1=NN(C(=O)c2ccccc2O)C(=O)/C1=C/c1ccc(O)cc1`, the TGI was over 100 µM with MDA-N; 16.1 µM with DMS 114 small cell lung; over 100 µM in the assay with KM20L2 colon; over 100 µM in the assay on LXFL 529 NSCLC; over 100 µM in the assay on SNB-78 CNS.

As to `C[C@H]1CC[C@@]2(NC1)O[C@H]1C[C@H]3[C@@H]4CC[C@H]5C[C@@H](O)CC[C@]5(C)[C@H]4CC[C@]3(C)[C@H]1[C@@H]2C`, in the assay with MDA-N, the concentration for total growth inhibition (TGI) was over 100 µM.

`COc1cc(OC)c2nc(C)c3c(c2c1)SCC3` came in with a TGI in the assay on MDA-N of 85 µM.

Consider `Cc1cc(NC(=O)NC(=O)c2ccccc2NC(=O)C(C)N)ccc1Oc1ncc(Br)cn1` (stereo unspecified), for which the TGI in the assay on MDA-N was 0.148 µM; in the assay on DMS 114 small cell lung it was 6.17 µM; with KM20L2 colon, 0.459 µM; with M19-MEL melanoma it was over 100 µM; in the assay on LXFL 529 NSCLC, over 100 µM; in the assay with SNB-78 CNS, 92.6 µM.

For the compound `C=C1CC2OC(=O)C(=C)C2C(O)C2C(=C)CCC12` (stereo unspecified), the TGI turned out to be 16.9 µM in the assay on DMS 114 small cell lung; 29.3 µM with HOP-18 NSCLC; 20.1 µM in the assay on M19-MEL melanoma; 16.7 µM with LXFL 529 NSCLC; 20.6 µM in the assay on SNB-78 CNS.

With `C=C(C(N)=O)c1ccc([N+](=O)[O-])o1`, the total growth inhibition concentration (TGI) in the assay on MDA-N came out at 13.5 µM.

In the assay on MDA-N, `COc1cc2c(cc1OC)[C@H](C)N1CCc3cc(OC)c(OC)cc3[C@@H]1C2` gave a TGI of over 100 µM.

With `CCOC(=O)CCC(NC(=O)OCc1ccccc1)C(=O)NC(CCC(=O)OCC)C(=O)NC(CCC(=O)OCC)C(=O)NC(CCC(=O)OCC)C(=O)NC(CCC(=O)OCC)C(=O)NC(CCC(=O)OCC)C(=O)NC(CCC(=O)OCC)C(=O)OCC` (stereo unspecified), the TGI with MDA-N is over 100 µM.

For `N/N=C(/C(=O)Nc1cccc(Cl)c1)C(C(=O)c1ccc(O)cc1O)C1OC(=O)c2ccccc21` (stereo unspecified), the TGI in the assay on DMS 114 small cell lung, in the assay with KM20L2 colon, in the assay on M19-MEL melanoma, in the assay with LXFL 529 NSCLC and in the assay with SNB-78 CNS was over 100 µM each time.

`COC(=O)C1(Cc2ccc3c(c2)CCC3)Cc2ccccc2C1O` (stereo unspecified): the concentration for total growth inhibition (TGI) with MDA-N amounted to 13.5 µM.

As to `CC(=O)[CH-]C(=O)c1ccccc1.CC(=O)[CH-]C(=O)c1ccccc1.CC[O-].CC[O-].[Hf+4]`, the GI50 with KM20L2 colon, in the assay on HOP-18 NSCLC and in the assay with LXFL 529 NSCLC was over 100 µM throughout. The TGI in the assay with KM20L2 colon, in the assay on HOP-18 NSCLC and in the assay on LXFL 529 NSCLC was over 100 µM in each case.

For the compound `C/C(=N/NC(=S)N1CCCCC1)c1ccccc1O`, the TGI in the assay with MDA-N was over 31.6 µM.

Take `CCOC(=O)CC[C@H](NC(=O)c1nc[nH]c1[N+](=O)[O-])C(=O)OCC`: the TGI in the assay on DMS 114 small cell lung, in the assay with KM20L2 colon, with HOP-18 NSCLC, in the assay with LXFL 529 NSCLC and in the assay with SNB-78 CNS was over 100 µM in each case.

In the assay on MDA-N, `O=C1Nc2ccc(Br)cc2C1=Nc1cccnc1` returned a TGI of 34.7 µM.

Regarding `COc1cc(OC)c(C/C=C/c2ccccc2)cc1O`, in the assay on MDA-N, the TGI turned out to be 38.8 µM.
